For one test, the target named is GSK3β(h) (Homo sapiens, UniProt P49841). As to the kind of experiment: GSK3β radiometric kinase assay (33P-ATP, phospho GS2 peptide). It is filed as biochemical. To be noted: read-out: IC50 GSK3β (enzyme assay). The essentials: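 Human GSK3β in 8 mM MOPS pH 7,0, 0,2 mM EDTA, 10 mM Mg-acetate with 20 μM phospho-GS2 peptide; the reaction was started with [γ-33P]MgATP at an unstated level. After 40 min at room temperature it was stopped with phosphoric acid, and the peptide was captured on P30 filtermat for scintillation counting.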
Chain of GSK3β(h) (P49841 whole entry): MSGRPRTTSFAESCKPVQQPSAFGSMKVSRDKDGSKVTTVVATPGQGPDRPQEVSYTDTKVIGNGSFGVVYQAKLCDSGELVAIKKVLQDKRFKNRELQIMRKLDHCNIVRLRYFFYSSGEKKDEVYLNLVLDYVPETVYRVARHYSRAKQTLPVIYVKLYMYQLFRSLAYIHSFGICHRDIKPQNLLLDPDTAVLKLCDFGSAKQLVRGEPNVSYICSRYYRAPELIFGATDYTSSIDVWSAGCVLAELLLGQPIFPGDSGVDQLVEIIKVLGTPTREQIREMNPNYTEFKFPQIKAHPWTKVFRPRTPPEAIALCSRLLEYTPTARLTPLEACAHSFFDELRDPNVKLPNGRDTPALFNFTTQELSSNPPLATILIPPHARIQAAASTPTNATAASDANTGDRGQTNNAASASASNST

Test [1] concerns the target T1, GCN2 (Homo sapiens, UniProt Q9P2K8). As to the kind of experiment: GCN2 enzyme assay (TR-FRET Lanthascreen, GFP-eIF2alpha phosphorylation). The format is biochemical. To be noted: 10 μM ATP, 80 nM GFP-eIF2a, 30 nM GCN2. In short, it runs like this:
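Kinase reaction with 10 μM ATP and 80 nM GFP-labelled eIF2alpha substrate at room temperature, stopped with EDTA. Phospho-eIF2alpha detected by TR-FRET between antibody and GFP-substrate, excitation at 340 nm.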
Target sequence in this assay (Q9P2K8 whole entry, species assumed): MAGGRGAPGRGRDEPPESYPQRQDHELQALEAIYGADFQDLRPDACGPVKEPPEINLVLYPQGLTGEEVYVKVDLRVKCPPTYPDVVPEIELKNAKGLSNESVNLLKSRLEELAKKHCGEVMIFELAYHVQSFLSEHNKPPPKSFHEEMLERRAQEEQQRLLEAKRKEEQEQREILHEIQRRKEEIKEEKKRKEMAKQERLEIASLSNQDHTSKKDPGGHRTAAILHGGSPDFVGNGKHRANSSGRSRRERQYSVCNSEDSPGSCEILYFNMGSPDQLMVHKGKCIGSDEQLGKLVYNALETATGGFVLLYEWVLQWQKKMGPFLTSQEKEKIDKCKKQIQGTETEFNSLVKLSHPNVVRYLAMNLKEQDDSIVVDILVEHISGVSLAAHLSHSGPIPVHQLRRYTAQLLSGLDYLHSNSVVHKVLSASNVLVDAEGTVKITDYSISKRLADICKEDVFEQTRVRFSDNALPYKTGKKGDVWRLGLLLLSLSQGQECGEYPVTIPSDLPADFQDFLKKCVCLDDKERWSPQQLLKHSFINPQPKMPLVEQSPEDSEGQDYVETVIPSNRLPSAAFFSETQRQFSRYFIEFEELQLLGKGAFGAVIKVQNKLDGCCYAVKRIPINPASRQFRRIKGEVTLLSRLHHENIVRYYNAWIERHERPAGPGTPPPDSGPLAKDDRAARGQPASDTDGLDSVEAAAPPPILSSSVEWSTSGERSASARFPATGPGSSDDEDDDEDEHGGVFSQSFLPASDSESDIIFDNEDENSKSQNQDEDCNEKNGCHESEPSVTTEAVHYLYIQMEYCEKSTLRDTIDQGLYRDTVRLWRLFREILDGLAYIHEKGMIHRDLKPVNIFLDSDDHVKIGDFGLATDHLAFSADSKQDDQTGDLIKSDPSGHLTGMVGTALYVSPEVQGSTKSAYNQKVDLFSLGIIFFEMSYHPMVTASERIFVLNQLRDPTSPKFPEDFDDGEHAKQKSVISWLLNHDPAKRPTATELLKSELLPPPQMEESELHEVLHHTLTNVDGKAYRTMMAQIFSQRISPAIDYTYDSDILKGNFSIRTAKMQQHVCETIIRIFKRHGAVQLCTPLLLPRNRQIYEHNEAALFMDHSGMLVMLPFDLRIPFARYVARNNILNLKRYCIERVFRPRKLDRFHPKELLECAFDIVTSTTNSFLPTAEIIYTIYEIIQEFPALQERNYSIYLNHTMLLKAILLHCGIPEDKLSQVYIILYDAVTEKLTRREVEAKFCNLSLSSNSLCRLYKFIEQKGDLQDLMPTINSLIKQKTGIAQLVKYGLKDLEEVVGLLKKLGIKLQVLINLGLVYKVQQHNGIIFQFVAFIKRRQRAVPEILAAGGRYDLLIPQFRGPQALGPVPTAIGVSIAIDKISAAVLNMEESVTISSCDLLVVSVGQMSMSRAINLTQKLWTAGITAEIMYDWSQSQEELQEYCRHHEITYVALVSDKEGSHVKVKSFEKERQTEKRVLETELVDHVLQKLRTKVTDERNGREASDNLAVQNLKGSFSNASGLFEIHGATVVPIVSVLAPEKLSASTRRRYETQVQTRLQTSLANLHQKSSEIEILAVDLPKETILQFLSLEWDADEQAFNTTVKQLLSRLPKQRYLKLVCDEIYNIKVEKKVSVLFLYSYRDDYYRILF

The target of another test is GSK3α(h) (Homo sapiens, UniProt P49840). As to the kind of experiment: GSK3α radiometric kinase assay (33P-ATP, phospho GS2 peptide). It is filed as biochemical. To be noted: read-out: IC50 GSK3α (enzyme assay). The essentials:
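Human GSK3α incubated with 20 μM phospho-GS2 peptide in 8 mM MOPS pH 7,0, 10 mM Mg-acetate and [γ-33P]ATP (concentration as required), started with MgATP. After 40 minutes at room temperature, stopped with phosphoric acid; 33P incorporation measured by filtermat spotting and scintillation counting.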

Test [2] has as its target T1, GCN2. As to the kind of experiment: Cellular assay of GCN2 activity (phospho-eIF2alpha immunocytochemistry after tryptophanol). It is filed as cell-based. The arrangement: endogenous in cells; host or cells: U2OS. To be noted: Human U2OS cells, 2 h compound, 600 μM tryptophanol 30 min. The essentials: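 Readout in human U2OS cells: compound pretreatment 2 h, then tryptophanol (600 μM final) for 30 min to trigger GCN2 signalling. Fixed, permeabilised cells quantified by immunocytochemistry for phosphorylation, normalised to DMSO controls as % effect; IC50 from concentration-response.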
Target sequence in this assay (Q9P2K8 whole entry): as the sequence (Q9P2K8 whole entry, species assumed) above

The structures appear in SMILES notation. Some results are limits rather than exact numbers.

20 molecules from US9855268B2, “Triazolo[4,5-d]pyrimidine derivatives” (Merck Patent GmbH, priority 2013, dated 2018) can be followed below.

Chain of GSK3α(h) (P49840 whole entry): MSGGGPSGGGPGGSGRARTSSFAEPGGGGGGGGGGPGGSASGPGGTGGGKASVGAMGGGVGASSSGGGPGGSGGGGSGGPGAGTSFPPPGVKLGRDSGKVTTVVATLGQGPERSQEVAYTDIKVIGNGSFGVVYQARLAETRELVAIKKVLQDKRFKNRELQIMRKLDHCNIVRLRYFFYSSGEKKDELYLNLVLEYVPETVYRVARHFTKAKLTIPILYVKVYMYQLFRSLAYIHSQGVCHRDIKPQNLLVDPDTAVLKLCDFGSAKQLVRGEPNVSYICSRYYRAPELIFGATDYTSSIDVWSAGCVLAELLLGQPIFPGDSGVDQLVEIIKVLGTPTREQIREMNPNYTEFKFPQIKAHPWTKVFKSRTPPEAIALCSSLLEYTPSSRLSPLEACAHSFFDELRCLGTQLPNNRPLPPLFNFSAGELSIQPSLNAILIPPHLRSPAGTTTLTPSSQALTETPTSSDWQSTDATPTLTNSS

The IC50 is the concentration at which inhibition is half-maximal. On to `COCCn1cc(-c2ccc(-n3nnc4cnc(N[C@@H]5CC[C@@H](O)C5)nc43)cc2)cn1` [A212, (1R,3R)-3-(3-{4-[1-(2-methoxy-ethyl)-1H-pyrazol-4-yl]-phenyl}-3H-[1,2,3]triazolo[4,5-d]pyrimidin-5-ylamino)-cyclopentanol], for which the IC50 was under 1000 nM on GSK3β(h), under 1000 nM against GCN2 [1], under 1000 nM at GSK3α(h) and 1000 to 5000 nM at GCN2 [2].
With `OCCn1cc(-c2ccc(-n3nnc4cnc(N[C@@H]5CC[C@@H](O)C5)nc43)cc2)cn1` [A259, (1R,3R)-3-(3-{4-[1-(2-hydroxy-ethyl)-1H-pyrazol-4-yl]-phenyl}-3H-[1,2,3]triazolo[4,5-d]pyrimidin-5-ylamino)-cyclopentanol], the IC50 is under 1000 nM on GSK3β(h), under 1000 nM against GCN2 [1], under 1000 nM at GSK3α(h) and 1000 to 5000 nM at GCN2 [2].
As for `Cc1ccc2cc(-n3nnc4cnc(N[C@@H]5CC[C@@H](C(=O)NCCO)C5)nc43)ccc2n1` [A245, (1R,3R)-3-[3-(2-methyl-quinolin-6-yl)-3H-[1,2,3]triazolo[4,5-d]pyrimidin-5-ylamino]-cyclopentanecarboxylic acid (2-hydroxy-ethyl)-amide], the IC50 at GSK3β(h), against GCN2 [1], at GSK3α(h) and on GCN2 [2] was under 1000 nM in each case.
Regarding `COCCn1cc(-c2ccc(-n3nnc4cnc(N[C@@H]5CC[C@@H](C(N)=O)C5)nc43)cc2F)cn1` [A221, (1R,3R)-3-(3-{3-fluoro-4-[1-(2-methoxy-ethyl)-1H-pyrazol-4-yl]-phenyl}-3H-[1,2,3]triazolo[4,5-d]pyrimidin-5-ylamino)-cyclopentanecarboxylic acid amide], the IC50 at GSK3β(h) is under 1000 nM; on GCN2 [1], under 1000 nM; on GSK3α(h), under 1000 nM; at GCN2 [2], 1000 to 5000 nM.
On to `CCOc1ccc(-n2nnc3cnc(N[C@@H]4CC[C@@H](O)C4)nc32)cc1` (relative stereo) [A207, (trans)-3-[3-(4-ethoxy-phenyl)-3H-[1,2,3]triazolo[4,5-d]pyrimidin-5-ylamino]-cyclopentanol], for which the IC50 on GSK3β(h) is under 1000 nM; at GCN2 [1], under 1000 nM; at GSK3α(h), under 1000 nM; on GCN2 [2], 1000 to 5000 nM.
`Cc1ccc2cc(-n3nnc4cnc(N[C@@H]5CCC[C@@H](C(N)=O)C5)nc43)ccc2n1` (relative stereo) [A192, (trans)-3-[3-(2-methyl-quinolin-6-yl)-3H-[1,2,3]triazolo[4,5-d]pyrimidin-5-ylamino]-cyclohexanecarboxylic acid amide]: the IC50 at GSK3β(h) is under 1000 nM; against GCN2 [1] it was under 1000 nM; on GSK3α(h), under 1000 nM; against GCN2 [2], 5000 to 10000 nM.
With `CCOc1ccc(-n2nnc3cnc(N[C@@H]4CC[C@@H](C(=O)NN)C4)nc32)cc1` [A282, (1R,3R)-3-[3-(4-ethoxy-phenyl)-3H-[1,2,3]triazolo[4,5-d]pyrimidin-5-ylamino]-cyclopentanecarboxylic acid hydrazide], the IC50 at GSK3β(h) is under 1000 nM; at GCN2 [1], under 1000 nM; at GSK3α(h), under 1000 nM; at GCN2 [2], 1000 to 5000 nM.
For the molecule `CCOCCn1cc(-c2ccc(-n3nnc4cnc(N[C@@H]5CC[C@@H](C(N)=O)C5)nc43)cc2F)cn1` [A223, (1R,3R)-3-(3-{4-[1-(2-ethoxy-ethyl)-1H-pyrazol-4-yl]-3-fluoro-phenyl}-3H-[1,2,3]triazolo[4,5-d]pyrimidin-5-ylamino)-cyclopentanecarboxylic acid amide], the IC50 on GSK3β(h), against GCN2 [1], at GSK3α(h) and on GCN2 [2] was under 1000 nM in each case.
Take `CCOc1ccc(-n2nnc3cnc(N[C@@H]4CC[C@@H](C(=O)NCC5CCN(C)CC5)C4)nc32)cc1` [A249, (1R,3R)-3-[3-(4-ethoxy-phenyl)-3H-[1,2,3]triazolo[4,5-d]pyrimidin-5-ylamino]-cycloentanecarboxyic acid (1-methyl-piperidin-4-ylmethyl)-amide]: the IC50 at GSK3β(h) is under 1000 nM; against GCN2 [1] it was under 1000 nM; at GSK3α(h), under 1000 nM; at GCN2 [2], 1000 to 5000 nM.
As to `CCOCCn1cc(-c2ccc(-n3nnc4cnc(N[C@@H]5CC[C@@H](C(N)=O)C5)nc43)cc2)cn1` [A211, (1R,3R)-3-(3-{4-[1-(2-ethoxy-ethyl)-1H-pyrazol-4-yl]-phenyl}-3H-[1,2,3]triazolo[4,5-d]pyrimidin-5-ylamino)-cyclopentanecarboxylic acid amide], the IC50 on GSK3β(h) is under 1000 nM; on GCN2 [1], under 1000 nM; on GSK3α(h), under 1000 nM; on GCN2 [2], 5000 to 10000 nM.
In the case of `Cc1nc(CCn2cc(-c3ccc(-n4nnc5cnc(N[C@@H]6CC[C@@H](C(N)=O)C6)nc54)cc3)cn2)no1` [A220, (1R,3R)-3-[3-(4-{1-[2-(5-methyl-[1,2,4]oxadiazol-3-yl)-ethyl]-1H-pyrazol-4-yl}-phenyl)-3H-[1,2,3]triazolo[4,5-d]pyrimidin-5-ylamino]-cyclopentanecarboxylic acid amide], the IC50 on GSK3β(h), against GCN2 [1], at GSK3α(h) and against GCN2 [2] was under 1000 nM throughout.
As for `Cc1ccc2cc(-n3nnc4cnc(N[C@@H]5CC[C@@H](N)C5)nc43)ccc2n1` [A124, (1R,3R)—N-[3-(2-methyl-quinolin-6-yl)-3H-[1,2,3]triazolo[4,5-d]pyrimidin-5-yl]-cyclopentane-1,3-diamine], the IC50 on GSK3β(h) was 1000 to 5000 nM; against GCN2 [1], under 1000 nM; on GSK3α(h), under 1000 nM; against GCN2 [2], 1000 to 5000 nM.
`COCCn1cc(-c2ccc(-n3nnc4cnc(N[C@@H]5CC[C@H](N)C5)nc43)cc2)cn1` [A121, (1S,3R)—N3-(3-{4-[1-(2-methoxy-ethyl)-1H-pyrazol-4-yl]-phenyl}-3H-[1,2,3]triazolo[4,5-d]pyrimidin-5-yl)-cyclopentane-1,3-diamine]: the half-inhibitory concentration (IC50) is 1000 to 5000 nM at GSK3β(h), under 1000 nM against GCN2 [1], under 1000 nM at GSK3α(h) and 1000 to 5000 nM at GCN2 [2].
For the molecule `COCCn1cc(-c2ccc(-n3nnc4cnc(N[C@@H]5CC[C@@H](O)C5)nc43)cc2F)cn1` [A228, (1R,3R)-3-(3-{3-fluoro-4-[1-(2-methoxy-ethyl)-1H-pyrazol-4-yl]-phenyl}-3H-[1,2,3]triazolo[4,5-d]pyrimidin-5-ylamino)-cyclopentanol], the IC50 on GSK3β(h) is under 1000 nM; on GCN2 [1], under 1000 nM; at GSK3α(h), under 1000 nM; against GCN2 [2], 5000 to 10000 nM.
In the case of `CCOc1ccc(-n2nnc3cnc(N[C@@H]4CC[C@@H](C(=O)NNC(C)=O)C4)nc32)cc1` [A280, (1R,3R)-3-[3-(4-ethoxy-phenyl)-3H-[1,2,3]triazolo[4,5-d]pyrimidin-5-ylamino]-cyclopentanecarboxylic acid N′-acetyl-hydrazide], the IC50 at GSK3β(h) is under 1000 nM; on GCN2 [1], under 1000 nM; at GSK3α(h), under 1000 nM; against GCN2 [2] it was 1000 to 5000 nM.
As for `Cc1ncc2cc(-n3nnc4cnc(N[C@@H]5CC[C@@H](C(N)=O)C5)nc43)ccc2n1` [A184, (1R,3R)-3-[3-(2-methyl-quinazolin-6-yl)-3H-[1,2,3]triazolo[4,5-d]pyrimidin-5-ylamino]-cyclopentanecarboxylic acid amide], the IC50 was under 1000 nM on GSK3β(h), under 1000 nM against GCN2 [1], under 1000 nM on GSK3α(h) and 1000 to 5000 nM on GCN2 [2].
Consider `CCOc1ccc(-n2nnc3cnc(N[C@@H]4CC[C@@H](C(=O)NCCOC)C4)nc32)cc1` [A248, (1R,3R)-3-[3-(4-ethoxy-phenyl)-3H-[1,2,3]triazolo[4,5-d]pyrimidin-5-ylamino]-cyclopentanecarboxylic acid (2-methoxy-ethyl)-amide], for which the IC50 is under 1000 nM at GSK3β(h), under 1000 nM against GCN2 [1], under 1000 nM on GSK3α(h) and 1000 to 5000 nM at GCN2 [2].
Take `COc1ccc(-n2nnc3cnc(N[C@@H]4C=C[C@@H](C(N)=O)C4)nc32)cc1` [A273, (1S,4S)-4-[3-(4-Methoxy-phenyl)-3H-[1,2,3]triazolo[4,5-d]pyrimidin-5-ylamino]-cyclopent-2-enecarboxylic acid amide]: the IC50 is under 1000 nM on GSK3β(h), under 1000 nM against GCN2 [1], under 1000 nM on GSK3α(h) and 5000 to 10000 nM against GCN2 [2].
On to `O[C@@H]1CC[C@@H](Nc2ncc3nnn(-c4ccc5ncccc5c4)c3n2)C1` [A204, (1R,3R)-3-(3-quinolin-6-yl-3H-[1,2,3]triazolo[4,5-d]pyrimidin-5-ylamino)-cyclopentanol], for which the IC50 on GSK3β(h) was under 1000 nM; on GCN2 [1] it was under 1000 nM; at GSK3α(h) it was under 1000 nM; on GCN2 [2], 1000 to 5000 nM.
With `CC(C)(CCO)Oc1ccc(-n2nnc3cnc(N[C@@H]4CC[C@@H](C(N)=O)C4)nc32)cc1` [A278, (1R,3R)-3-{3-[4-(3-hydroxy-1,1-dimethyl-propoxy)-phenyl]-3H-[1,2,3]triazolo[4,5-d]pyrimidin-5-ylamino}-cyclopentanecarboxylic acid amide], the IC50 at GSK3β(h) was under 1000 nM; against GCN2 [1], under 1000 nM; on GSK3α(h), under 1000 nM; on GCN2 [2], 1000 to 5000 nM.
